Measured values reported in patent US6114369A, “Benzimidazole compound” (Nissan Chemical Industries, Ltd., priority 1997, dated 2000).
Where a name gives a salt, the structure may show the parent alone.

Experiments:
[1] = tested on: substance P-induced contraction of the isolated guinea-pig ileum; experiment: Inhibitory effect on substance P-induced contraction of the isolated guinea-pig ileum; type: cell-based; conditions: Cavia porcellus, 5 min, substance P 0.01 μM, 5 min incubation, 30° C.
Protocol: (§1) Inhibitory effect on substance P and histamine-induced contraction of the isolated guinea-pig ileum. Test compounds were dissolved and diluted in 100% dimethylsulfoxide (DMSO). Substance P (SP, Peninsula Laboratories or Peptide Institute) and histamine dihydrochloride (Wako Pure Chemicals) were dissolved and diluted in distilled water. […] Male Hartley guinea-pigs (300-400 g) were killed by a blow to the head. The ileum was removed and the ileal strips (15-20 mm) were suspended under 0.5 g tension in a 20 ml organ bath containing a modified Tyrode solution maintained at 30° C. and aerated with 95% O2 +5% CO2. Responses were recorded isotonically. Tissues were equilibrated for 15 min, and then the constant responses to histamine (1 μM) were obtained. Then substance P (0.01 μM) or histamine (0.1 μM)-induced contraction was obtained after 5 min incubation with or without the test compounds. Contractile responses to substance P or histamine with the test compound were expressed as a percentage of those without the test compound. IC50 was the concentration of the test compound required to prevent 50% of the contractile response elicited by substance P or histamine. Compound Nos. of the tested compounds correspond to the numbers of Preparation Examples.

[2] = tested on: histamine-induced contraction of the isolated guinea-pig ileum; experiment: Inhibitory effect on histamine-induced contraction of the isolated guinea-pig ileum; type: cell-based; conditions: Cavia porcellus, 5 min, histamine 0.1 μM, 5 min incubation, 30° C.
Protocol: as §1

Row | Compound | IC50 [1] [nM] | IC50 [2] [nM]
1 | CN(CCCN(C)C(=O)NCc1cc(C(F)(F)F)cc(C(F)(F)F)c1)Cc1nc2ccccc2n1Cc1ccc(F)cc1 [Compound 3, N-methyl-N-(1-(4-fluorobenzyl)benzimidazol-2-yl)methyl-N'-methyl-N'-(3,5-bis(trifluoromethyl)benzylaminocarbonyl)-1,3-propylenediamine hydrochloride] | 1400 | 160
2 | CN(CCN(C)C(=O)NCc1cc(C(F)(F)F)cc(C(F)(F)F)c1)Cc1nc2ccccc2n1Cc1ccc(F)cc1 [Compound 4, N-methyl-N-(1-(4-fluorobenzyl)benzimidazol-2-yl)methyl-N'-methyl-N'-(3,5-bis(trifluoromethyl)benzylaminocarbonyl)-1,2-ethylenediamine hydrochloride] | 950 | 100
3 | COc1ccccc1CNC(=O)N(C)CCCN(C)c1nc2ccccc2n1Cc1ccc(F)cc1 [Compound 5] | 3000 | 29
4 | CN(CCCN(C)c1nc2ccccc2n1Cc1ccc(F)cc1)C(=O)NCc1ccccc1Cl [Compound 6] | 2700 | 25
5 | COc1cc(CNC(=O)N(C)CCCN(C)c2nc3ccccc3n2Cc2ccc(F)cc2)cc(OC)c1 [Compound 8] | 3000 | 280
6 | CN(CCCN(C)c1nc2ccccc2n1Cc1ccc(F)cc1)C(=O)NCc1cc(Cl)cc(Cl)c1 [Compound 11] | 1500 | 200
7 | Cc1ccc(CNC(=O)N(C)CCCN(C)c2nc3ccccc3n2Cc2ccc(F)cc2)cc1 [Compound 13] | 2800 | 28

Other lines, results leading:

Row | IC50 [1] [nM] | IC50 [2] [nM] | Compound
8 | 590 | 290 | CN(CCCN(C)c1nc2ccccc2n1Cc1ccc(F)cc1)C(=O)NCc1cc(C(F)(F)F)cc(C(F)(F)F)c1 [Compound 1, N-methyl-N-(1-(4-fluorobenzyl)benzimidazol-2-yl)-N'-methyl-N'-(3,5-bis(trifluoromethyl)benzylaminocarbonyl)-1,3-propylenediamine hydrochloride]
9 | 2800 | 1100 | CN(CCN(C)c1nc2ccccc2n1Cc1ccc(F)cc1)C(=O)NCc1cc(C(F)(F)F)cc(C(F)(F)F)c1 [Compound 2, N-methyl-N-(1-(4-fluorobenzyl)benzimidazol-2-yl)-N'-methyl-N'-(3,5-bis(trifluoromethyl)benzylaminocarbonyl)-1,2-ethylenediamine hydrochloride]
10 | 4000 | 100 | COc1cc(CNC(=O)N(C)CCCN(C)c2nc3ccccc3n2Cc2ccc(F)cc2)cc(OC)c1OC [Compound 7]
11 | 2700 | 36 | CN(CCCN(C)c1nc2ccccc2n1Cc1ccc(F)cc1)C(=O)NCc1ccc(F)cc1 [Compound 9]
12 | 2800 | 41 | COc1cccc(CNC(=O)N(C)CCCN(C)c2nc3ccccc3n2Cc2ccc(F)cc2)c1 [Compound 10]
13 | 4100 | 44 | COc1ccc(CNC(=O)N(C)CCCN(C)c2nc3ccccc3n2Cc2ccc(F)cc2)cc1 [Compound 12]
